Reference: patent US9474790B2, “Stable, protracted GLP-1/glucagon receptor co-agonists for medical use” (Novo Nordisk A/S, priority 2013, dated 2016)
Numbered stars: 1 amine (or outer) side, 2 acyl side, 3 side chain; on linkers, the order of the positions; unused ones are H or OH. Square brackets hold non-standard residues; d marks the D form. Side chains are listed from the residue outwards. Peptide text beside a SMILES is read from it. * marks the point of attachment. C18 diacid = O=C(O)CCCCCCCCCCCCCCCCC(=O)*; γGlu = O=C(O)[C@H](CCC(=O)[*:2])N[*:1]; AEEA = NCCOCCOCC(=O)O; Aib = CC(C)(N)C(=O)O

Tests used:
[1] = target: T1, human GLP-1 receptor (Homo sapiens, UniProt P43220); assay: GLP-1 receptor binding, 125I-GLP-1 displacement SPA on isolated membranes; conditions: displacement of 125I-GLP-1 from membranes; read-out: IC50 GLP-1R
T1 construct: expressed in transfected cells; host or cells: BHK cells (parent BHKTS13), clone FCW467-12A/KZ10-1, with CRE luciferase
Experimental: The purpose of this assay was to test the in vitro receptor binding activity of the glucagon derivatives of the invention. The receptor binding is a measure of affinity of a compound for the human GLP-1 receptor.
The receptor binding of each compound to the human GLP-1 receptor was measured in a displacement binding assay. In this type of assay a labelled ligand (in this case 125I-GLP-1) is bound to the receptor. Each derivative was added in a series of concentrations to isolated membranes containing the human GLP-1 receptor and displacement of the labelled ligand was monitored. The receptor binding was reported as the concentration at which half of the labelled ligand was displaced from the receptor, the IC50 value.
In order to test the binding of the derivatives to albumin, the assay may be performed in a very low concentration of serum albumin (max. 0.001% final assay concentration) as well as in the presence of a higher concentration of serum albumin (2.0% final assay concentration). An increase of the IC50 value, in the presence of serum albumin indicates an affinity to serum albumin and represents a method to predict a protracted pharmacokinetic profile of the test substance in animal models.
The following chemicals were used in the assay: DMEM w/o phenol red (Gibco 11880-028), Pen/strep (Invitrogen 15140-122), G418 (Invitrogen 10131-027), 1 M Hepes (Gibco 15630), EDTA (Invitrogen 15575-038), PBS (Invitrogen 14190-094), fetal calf serum (Invitrogen 16140-071), EGTA, MgCl2 (Merck 1.05832.1000), Tween 20 (Amresco 0850C335), SPA particles (wheat germ agglutinin (WGA) SPA beads, Perkin Elmer RPNQ0001), [125I]-GLP-1]-(7-36)NH2 (produced in-house), OptiPlate™-96 (Perkin Elmer).
Buffer 1 consisted of 20 mM Na-HEPES plus 10 mM EDTA and pH was adjusted to 7.4.
Buffer 2 consisted of 20 mM Na-HEPES plus 0.1 mM EDTA and pH was adjusted to 7.4.
Assay buffer consisted of 50 mM HEPES supplemented with 5 mM EGTA, 5 mM MgCl2, 0.005% Tween 20 and pH was adjusted to 7.4.
The cells used in this assay (clone FCW467-12A) were BHK cells with BHKTS13 as a parent cell line. The cells express the human GLP-1 receptor.
The cells were grown at 5% CO2 in DMEM, 10% fetal calf serum, 1% Pen/Strep (Penicillin/Streptomycin) and 1.0 mg/ml of the selection marker G418. To make a membrane preparation the cells were grown to approximately 80% confluence. The cells were washed twice in phosphate-buffered saline and harvested. The cells were pelleted using a brief centrifugation and the cell pellet was kept on ice. The cell pellet was homogenised with ULTRA-THURRAX dispersing instrument for 20-30 sec in a suitable amount of buffer 1 (e.g. 10 ml). The homogenate was centrifuged for 15 min. The pellet was re-suspended (homogenised) in 10 ml buffer 2 and centrifuged. This step was repeated once more. The resulting pellet was re-suspended in buffer 2 and the protein concentration was determined. The membranes were aliquoted and stored at minus 80° C.
1. For the receptor binding assay, 50 μl of the assay buffer was added to each well of an assay plate.
2. Test compounds were serially diluted to give the following concentrations: 8×10EE-7 M, 8×10EE-8 M, 8×10EE-9 M, 8×10EE-10 M, 8×10EE-11 M, 8×10EE-12 M and 8×10EE-13 M. Twenty-five μl were added to appropriate wells in the assay plate.
3. Cell membrane aliquots were thawed and diluted to their working concentration. Fifty μl were added to each well in the assay plate.
4. WGA SPA beads were suspended in assay buffer at 20 mg/ml. The suspension was diluted to 10 mg/ml in assay buffer just prior to addition to the assay plate. Fifty μl were added to each well in the assay plate.
5. The incubation was started by adding 25 μl of 480 pM solution of [125I]-GLP-1]-(7-36)NH2 to each well of the assay plate. A 25 μl aliquot was reserved for measuring total counts/well.
6. The assay plate was incubated for 2 h at 30° C.
7. The assay plate was centrifuged for 10 min.
8. The assay plate was read in a Perkin Elmer TopCount NXT instrument. […]

[2] = target: T1, human GLP-1 receptor; assay: GLP-1 receptor potency, CRE luciferase reporter gene assay in BHK cells; assay type: cell-based; conditions: BHK cells expressing human GLP-1 receptor, read-out: EC50 GLP-1R
Experimental: The purpose of this example was to test the potency, of the glucagon derivatives of the invention, in vitro. The in vitro potency is the measure of human GLP-1 receptor or glucagon receptor activation, respectively, in a whole cell assay.
In vitro potency was determined by measuring the response of human GLP-1 or glucagon receptor, respectively, in a reporter gene assay. The assay was performed in a stably transfected BHK cell line that expresses either the human GLP-1 receptor or the human glucagon receptor and contains the DNA for the cAMP response element (CRE) coupled to a promoter and the gene for firefly luciferase (CRE luciferase). […] When assay incubation was completed, the luciferase substrate (luciferin) was added and the enzyme converted luciferin to oxyluciferin and produces bioluminescence. The luminescence was measured as the readout for the assay.
The cells used in this assay (clone FCW467-12A/KZ10-1) were BHK cells with BHKTS13 as a parent cell line. The cells were derived from a clone (FCW467-12A) that expresses the human GLP-1 receptor and were established by further transfection with
CRE luciferase to obtain the current clone.
The cells were cultured at 5% CO2 in DMEM medium with 10% FBS, 1×GlutaMAX, 1 mg/ml G418, 240 nM MTX (methotrexate) and 1% pen/strep (penicillin/streptomycin). They were aliquoted and stored in liquid nitrogen. Before each assay, an aliquot was taken up and washed three times in PBS before being suspended at the desired concentration in assay medium. For 96-well plates the suspension was made to give a final concentration of 5×10EE3 cells/well.
The following chemicals were used in the assay: Pluronic F-68 (10%) (Gibco 2404), ovalbumin (Sigma A5503), DMEM w/o phenol red (Gibco 11880-028), 1 M Hepes (Gibco 15630), Glutamax 100× (Gibco 35050) and steadylite plus (PerkinElmer 6016757).
Assay Medium consisted of DMEM w/o phenol red, 10 mM Hepes, lx GlutaMAX, 2% Ovalbumin and 0.2% Pluronic F-68.
Cell stocks were thawed in a 37° C. water bath. Cells were washed three times in PBS. The cells were counted and adjusted to 5×10EE3 cells/50 μl (1×10EE5 cells/ml) in Assay Medium. A 50 μl aliquot of cells was transferred to each well in the assay plate.
Stocks of the test compounds and reference compounds were diluted to a concentration of […] in Assay Medium. Compounds were diluted 10-fold to give the following concentrations: 2×10EE-6 M, 2×10EE-7 M, 2×10EE-8 M; 2×10EE-9 M, 2×10EE-10 M, 2×10EE-11 M, 2×10EE-12 M and 2×10EE-13 M. For each compound a blank assay medium control was also included.
A 50 μl aliquot of compound or blank was transferred from the dilution plate to the assay plate. Compounds were tested at the following final concentrations: 1×10EE-6 M, 1×10EE-7 M, 1×10EE-8 M; 1×10EE-9 M, 1×10EE-10 M, 1×10EE-11 M and 1×10EE-12 M and 1×10EE-13 M.
The assay plate was incubated for 3 h in a 5% CO2 incubator at 37° C. The assay plate was removed from the incubator and allowed to stand at room temperature for 15 min. A 100 μl aliquot of steadylite plus reagent was added to each well of the assay plate (reagent is light sensitive). Each assay plate was covered with aluminum foil to protect it from light and shaken for 30 min at room temperature. Each assay plate was read in a Perkin Elmer TopCount NXT instrument.
The data from the TopCount instrument was transferred to GraphPad Prism software. The software performed a non-linear regression (log(agonist) vs response-Variable slope (four parameter)). EC50 values were calculated by the software and reported in pM.

T1 sequence (P43220 24-463): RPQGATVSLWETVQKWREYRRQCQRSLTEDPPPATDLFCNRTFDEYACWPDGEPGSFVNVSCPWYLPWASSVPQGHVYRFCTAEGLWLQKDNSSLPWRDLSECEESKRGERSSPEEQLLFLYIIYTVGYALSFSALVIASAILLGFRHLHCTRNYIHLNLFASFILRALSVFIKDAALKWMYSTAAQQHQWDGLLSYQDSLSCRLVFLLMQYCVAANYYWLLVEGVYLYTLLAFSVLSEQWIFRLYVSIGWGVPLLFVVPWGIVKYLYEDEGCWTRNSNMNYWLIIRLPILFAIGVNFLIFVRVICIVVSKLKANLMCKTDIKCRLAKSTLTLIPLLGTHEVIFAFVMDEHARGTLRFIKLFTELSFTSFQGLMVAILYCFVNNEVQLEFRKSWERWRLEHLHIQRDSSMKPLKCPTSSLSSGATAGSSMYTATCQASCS

Structure (SMILES)	IC50 [1] [nM]	EC50 [2] [nM]
CC(C)C[C@H](NC(=O)[C@H](Cc1ccc(O)cc1)NC(=O)[C@H](CCCNC(=N)N)NC(=O)[C@H](CO)NC(=O)[C@@H](NC(=O)[C@H](CC(=O)O)NC(=O)[C@H](CO)NC(=O)[C@@H](NC(=O)[C@H](Cc1ccccc1)NC(=O)[C@@H](NC(=O)CNC(=O)[C@H](CCC(N)=O)NC(=O)C(C)(C)NC(=O)[C@@H](N)Cc1c[nH]cn1)[C@@H](C)O)[C@@H](C)O)C(C)C)C(=O)N[C@@H](CC(=O)O)C(=O)N[C@@H](C)C(=O)N[C@@H](CCCNC(=N)N)C(=O)N[C@@H](CCCNC(=N)N)C(=O)N[C@@H](C)C(=O)N[C@@H](CCC(N)=O)C(=O)N[C@@H](CC(=O)O)C(=O)N[C@@H](Cc1ccccc1)C(=O)N[C@H](C(=O)N[C@@H](CCC(N)=O)C(=O)N[C@@H](Cc1c[nH]c2ccccc12)C(=O)N[C@@H](CC(C)C)C(=O)N[C@@H](CC(C)C)C(=O)N[C@@H](CCCCNC(=O)COCCOCCNC(=O)COCCOCCNC(=O)CC[C@H](NC(=O)CC[C@H](NC(=O)CC[C@H](NC(=O)CCCCCCCCCCCCCCCCC(=O)O)C(=O)O)C(=O)O)C(=O)O)C(=O)N[C@H](C(N)=O)[C@@H](C)O)C(C)C [Example 72, N^ε28-[2-[2-[2-[(2-[2-[2-[[(4S)-4-carboxy-4-[[(4S)-4-carboxy-4-[[(4S)-4-carboxy-4-(17-carboxyheptadecanoylamino)butanoyl]amino]butanoyl]amino]butanoyl]amino]ethoxy]ethoxy]acetyl]amino]ethoxy]ethoxy]acetyl]-[Aib2,Val10,Arg12,Ala16,Leu27,Lys28]-Glucagon amide] (H-H[Aib]QGTFTSDVSRYLDARRAQDFVQWLLK([AEEA-AEEA-γGlu-γGlu-γGlu-C18 diacid])T-NH2)	0.5	0.003
CC(C)C[C@H](NC(=O)[C@H](CC(=O)O)NC(=O)[C@H](CC(C)C)NC(=O)[C@H](Cc1ccc(O)cc1)NC(=O)[C@H](CCCNC(=N)N)NC(=O)[C@H](CO)NC(=O)[C@@H](NC(=O)[C@H](CC(=O)O)NC(=O)[C@H](CO)NC(=O)[C@@H](NC(=O)[C@H](Cc1ccccc1)NC(=O)[C@@H](NC(=O)CNC(=O)[C@H](CCC(N)=O)NC(=O)C(C)(C)NC(=O)[C@@H](N)Cc1c[nH]cn1)[C@@H](C)O)[C@@H](C)O)C(C)C)C(=O)N[C@@H](CCCNC(=N)N)C(=O)N[C@@H](CCCNC(=N)N)C(=O)N[C@@H](C)C(=O)N[C@@H](CCC(N)=O)C(=O)N[C@@H](CC(=O)O)C(=O)N[C@@H](Cc1ccccc1)C(=O)N[C@H](C(=O)N[C@@H](CCC(N)=O)C(=O)N[C@@H](Cc1c[nH]c2ccccc12)C(=O)N[C@@H](CC(C)C)C(=O)N[C@@H](CC(C)C)C(=O)N[C@@H](CCCCNC(=O)COCCOCCNC(=O)COCCOCCNC(=O)CC[C@H](NC(=O)CC[C@H](NC(=O)CC[C@H](NC(=O)CCCCCCCCCCCCCCCCC(=O)O)C(=O)O)C(=O)O)C(=O)O)C(=O)N[C@H](C(N)=O)[C@@H](C)O)C(C)C [Example 73, N^ε28-[2-[2-[2-[[2-[2-[2-[[(4S)-4-carboxy-4-[[(4S)-4-carboxy-4-[[(4S)-4-carboxy-4-(17-carboxyheptadecanoylamino)butanoyl]amino]butanoyl]amino]butanoyl]amino]ethoxy]ethoxy]acetyl]amino]ethoxy]ethoxy]acetyl]-[Aib2,Val10,Arg12,Leu16,Leu27,Lys28]-Glucagon amide] (H-H[Aib]QGTFTSDVSRYLDLRRAQDFVQWLLK([AEEA-AEEA-γGlu-γGlu-γGlu-C18 diacid])T-NH2)	1.5	0.005
